Source: patent publication US20210361750A1, “Anti-Viral Lactoferrin Facemask” (priority 2020, published 2021)

How the values were obtained:
SARS-CoV-2 = experiment: Cyclodextrin testing: antiviral activity against SARS-CoV-2 in Vero E6 cells (CPE); type: cell-based; details: pH 7; lactoferrin alone 10 mg/mL, cyclodextrin alone 10 mg/mL, or lactoferrin 5 mg/mL + cyclodextrin 10 mg/mL
Vero E6 cells = details: control without virus, 10 mg/mL

**Q.** Which results are given for “cyclodextrin [cyclodextrin alone, reference compound]”?
**A.** antiviral activity (cytopathic effect) (SARS-CoV-2): none of the experiments showed antiviral activity; cytopathic effect on the cells (Vero E6 cells): neither the lactoferrin alone (10 mg/mL) or the cyclodextrin alone (10 mg/mL) had a cytopathic effect
